Laboratory results published in US8293979B2, “Weed controller metabolism proteins, genes, thereof and use of the same” (Sumitomo Chemical Company, Limited, priority 2001, dated 2012).

Experiments:
[1] = system: present invention protein (A20); experiment: Metabolism of compounds by the present invention protein (A20), reaction solution, HPLC; type: in vitro ADME, Streptomyces lanatus IFO 12787T; settings: 12.5 ppm of compound, components A, B, C, 20 μl supernatant fraction of Example 57(2), 30° C. for 10 minutes
[2] = system: present invention protein (A18); experiment: Metabolism of compounds by the present invention protein (A18), reaction solution, HPLC; type: in vitro ADME, Streptomyces achromogenes IFO 12735; settings: 12.5 ppm of compound, components A, B, C, 20 μl supernatant fraction of Example 53(2), 30° C. for 10 minutes
[3] = system: Ivyleaf morningglory; experiment: Herbicidal activity test, foliage treatment; type: in vivo, Ipomoea hederacea; parameters: key: 0: situations in which the condition of sprouting or vegetation at the time of examination of the plant utilized for the test was compared with and showed totally or substantially no difference with that of the untreated application; 10: situations in which the plant completely withered or the sprouting or vegetation was completely suppressed; settings: sprayed onto the foliage of plants cultivated 10 days, investigated after 16 days in a greenhouse
Method: (§1) Soil was packed into a round plastic pot having a diameter of 10 cm and depth of 10 cm. Barnyardgrass, Blackgrass, Ivyleaf morningglory were seeded and cultivated in a greenhouse for 10 days. Five (5) parts of the test compound, 6 parts of sorpol3005X (Toho Chemical Company) and 89 parts of xylene were well mixed to produce an emulsion. A certain amount thereof was diluted with water containing 0.1% (v/v) of a sticking agent at a proportion of 1000 L for 1 hectare and was spread uniformly with a spray-gun onto the all sides of the foliage from above the plant cultivated in the above pot. After cultivating the plants for 16 days in a greenhouse, the herbicidal activity of the test compound was investigated.
(§2) In the above Tables 3 and 4, the strength of the herbicidal activity is shown stepwise as 0, 1, 2, 3, 4, 5, 6, 7, 8, 9, and 10.

[4] = system: leaf pieces derived from the tobacco to which the present invention DNA (A1) was introduced; experiment: Herbicidal damage of tobacco leaf pieces on MS agar medium containing compound (II); type: cell-based, Nicotiana tabacum strain SR1; settings: MS agar medium containing 0.1 mg/L of compound (II), in the light at room temperature, 7th day of culturing
Method: Then, according to the method described in Manual for Gene Manipulation of Plant (by Hirofumi UCHIMIYA, Kodan-sha Scientific, 1992), the gene was introduced into tobacco. Agrobacterium strains bearing the above plasmids were each cultured at 28° C. overnight in LB medium containing 300 mg/L streptomycin, 100 mg/L rifampicin and 25 mg/L kanamycin, and then leaf pieces of tobacco (Nicotiana tabacum strain SR1) cultured sterilely were dipped in the liquid culture medium. The leaf pieces were planted and cultured at room temperature for 2 days in the light in MS agar medium (MS inorganic salts, MS vitamins, 3% sucrose and 0.8% agar; described in Murashige T. and Skoog F., Physiol. Plant. (1962) 15, p 473) containing 0.1 mg/L of naphthalene acetic acid and 1.0 mg/L of benzyl aminopurine. Then, the leaf pieces were washed with sterilized water and cultured for 7 days on MS agar medium containing 0.1 mg/L of naphthalene acetic acid, 1.0 mg/L of benzyl aminopurine and 500 mg/L of cefotaxime. Next, the leaf pieces were transplanted and cultured in MS agar medium containing 0.1 mg/L of naphthalene acetic acid, 1.0 mg/L of benzyl aminopurine, 500 mg/L of cefotaxime and 100 mg/L of kanamycin. The culture was conducted continuously for 4 months while transplanting the leaf pieces to fresh medium of the same composition at intervals of 4 weeks. […]

[5] = system: Barnyardgrass; experiment: Herbicidal activity test, foliage treatment; type: in vivo, Echinochloa crus-galli; parameters: key: 0: situations in which the condition of sprouting or vegetation at the time of examination of the plant utilized for the test was compared with and showed totally or substantially no difference with that of the untreated application; 10: situations in which the plant completely withered or the sprouting or vegetation was completely suppressed; settings: sprayed onto the foliage of plants cultivated 10 days, investigated after 16 days in a greenhouse
Method: as §1, §2

[6] = system: present invention protein (A13); experiment: Detection of the ability to convert compound (II) to compound (III), E. coli pKSN474F extract; type: in vitro ADME, Streptomyces thermocoerulesces IFO 14273t; settings: 3 ppm of compound (II) labeled with 14C, components A, B, 10 minutes at 30° C.
Method: Reaction solutions of 30 μl were prepared and maintained for 10 minutes at 30° C. The reaction solutions consisted of a 0.1M potassium phosphate buffer (pH7.0) containing 3 ppm of compound (II) labeled with ^14C, 2 mM of β-NADPH (hereinafter, referred to as “component A”) (Oriental Yeast Company), 2 mg/ml of a ferredoxin derived from spinach (hereinafter referred to as “component B”) (Sigma Company), 0.1 U/ml of ferredoxin reductase (hereinafter, referred to as “component C”) (Sigma Company) and 23 μl of the supernatant fraction recovered in Example 32(2). Similarly to Example 4(3), the reaction solutions after the maintenance were extracted with ethyl acetate and the extracted layers were TLC analyzed. […] A spot corresponding to compound (III) was detected from the reaction solution containing E. coli pKSN849AF extract. In contrast, such a spot was not detected from the reaction solution containing E. coli pKSN2 extract.
Reaction solutions of 30 μl were prepared and maintained for 10 minutes at 30° C. […] The reaction solutions after the maintenance were extracted with ethyl acetate and the extracted layers were TLC analyzed. […] A spot corresponding to compound (III) was detected from the reaction solution containing E. coli pKSN474F extract. In contrast, such a spot was not detected from the reaction solution containing E. coli pKSN2 extract.

| Structure (SMILES) | concentration of the compound detected from metabolism solution (A20) compared to control solution (A20) [1] | concentration of the compound detected from metabolism solution (A18) compared to control solution (A18) [2] | Herbicidal Activity Ivyleaf Morningglory ([3]; 125 g/ha) | Herbicidal Activity Ivyleaf Morningglory ([3]; 500 g/ha) | herbicidal damage of the leaf pieces [4] | Herbicidal Activity Barnyardgrass ([5]; 125 g/ha) | Herbicidal Activity Barnyardgrass ([5]; 500 g/ha) | spot corresponding to compound (III) labeled with 14C (TLC) [6] |
| --- | --- | --- | --- | --- | --- | --- | --- | --- |
| Cn1c(C(F)(F)F)cc(=O)n(-c2cc(Oc3cccnc3OCC(=O)O)c(Cl)cc2F)c1=O [compound (XII)] | lower | lower |  |  |  |  |  |  |
| C[C@@H](Oc1cc(-n2c(=O)cc(C(F)(F)F)n(C)c2=O)c(F)cc1Cl)C(=O)O [compound (II)] |  |  | 10 | 10 | grew continuously | 10 | 10 | detected |
| Cn1c(C(F)(F)F)cc(=O)n(-c2cc(Oc3ccccc3OCC(=O)O)c(Cl)cc2F)c1=O [compound (XIII)] | lower | lower |  |  |  |  |  |  |
